From US6395893B1, “Crystallization of lactitol, crystalline lactitol product and use thereof” (Xyrofin Oy, priority 2000, dated 2002)
Where two headings read alike, the source gives them in different places.

Legend:
Format in all cases: physicochemical
[1] = Tablet friability (Key Instruments friability tester); settings: for Friability (10 tabs): tablet, percentage weight loss, dropped 100 times
Protocol: (§1) The material under evaluation was mixed in a laboratory scale Turbula mixer for 2 minutes with 0.5% magnesium stearate as lubricant. The mixed sample was then tabletted on a Manesty 2C single punch press using a 15 mm diameter flat-faced bevelled edge punch. The compression force was adjusted by altering the drop of the top punch. The compression force is indicated by an arbitrary figure. The higher the number, the greater the compression. These figures can only be used as a comparison for each series of compressions. As soon as the material is changed or any of the machine settings are altered the numbers cannot be compared. The adjustment is such that it cannot be exactly reproduced, therefore, these figures should only be seen as a means of differentiating between samples and indicating either increasing or decreasing compression force. Tablet friability was measured using a Key Instruments friability tester. Ten tablets were dropped 100 times and the percentage weight loss recorded. Any tablets that are badly chipped are removed prior to weighing.

[2] = Tablet hardness (Key Instruments hardness tester); settings: for Hardness / Hardness (in brackets): tablet; for Hardness: 24 hours after production; for Hardness (in brackets): analysis performed during production; for Maximum hardness: tablets over the range of compression forces
Protocol: as §1, with “hardness” for “friability”, “tablet hardness tester which measures the force required to break the tablet across its diameter.” for “friability tester.”, “tested” for “dropped 100 times”, “an average reading” for “the percentage weight loss”, “recorded.” for “recorded. Any tablets that are badly chipped are removed prior to weighing.”

Rate of solution = settings: 100 g in 100 g of water at 20° C., paddle mixer 250 rpm
Protocol: Rate of solution: 100 g of the sample was put in 100 g of water at 20° C. and 40° C. A small paddle mixer, 250 rpm, was used to mix the solution. During the dissolution the refractive index was measured.

[3] = Viscosity of chocolate on storage (Haake RV20 viscometer); settings: chocolate made with the lactitol, held at 50° C. for one week
Protocol: (§2) The milk powder, microcrystalline lactitol, Litesse II (modified polydextrose), vanillin and cocoa liquor were mixed in a Stephan mixer with a portion of the cocoa butter. The mixture was passed through a three roll refiner to produce a flake. The flake was mixed again in the Stephan mixer and a farther portion of cocoa butter was added. The mix was re-refined with the pressures increased to produce a flake with an acceptable particle size.
The resulting flakes were stored ready for conching. Prior to conching the flakes were pre-warmed in an oven set to 50° C. The flake was added to a conche with the temperature set to 60° C. On loading the remaining cocoa butter was added to give a final fat content of 35 %. A small amount of the lecithin was added at this stage. The sample was conched for 24 hours. The remaining lecithin was added I hour prior to the removal of the batch from the conche.
For the sake of comparison the procedure was repeated identically with another batch except that the microcrystalline lactitol was replaced by standard crystalline lactitol monohydrate (Lactitol MC, Xyrofin Oy).
The viscosity of the two samples was measured using a Haake RV20 viscometer with an RC20 rheocontroller fitted. […]

[4] = Particle size analysis of chocolate; settings: chocolate made with the lactitol
Protocol: as §2
There was an insignificant increase in the particle size of the chocolate made using microcrystalline lactitol (10-12 μm) compared to the one with lactitol monohydrate (9-10 μm).

[5] = Heat of solution (calorimeter); settings: 40 g in 670 g distilled water at 25° C.
Protocol: Heat of solution: 40 g of the sample was dissolved in 670 g of distilled water at 25° C. The heat of solution was measured with a calorimeter operating in a constant temperature environment.

Bulk density = settings: tapped 10 times
Protocol: (§3) Flowability: A 500 g sample was poured to a 500 ml measuring cylinder. The sample was tapped 10 times, levelled and the amount of the sample was weighed.

[6] = Hygroscopicity (humidity cabinet)
Protocol: Hygroscopicity: 10 g of the sample was weighed to a petri dish. The open dish was put into a humidity cabinet. The change in weight was measured. The humidity cabins at 25° C. and relative humidity 60% and at 40° C. and relative humidity 70% were used.

[7] = Particle size distribution by sieve analysis; settings: for Coefficient of variation: of particle size
Description: Particle size distribution: Sieve analysis was used to determine the particle size.

Flowability = assay: Flowability
Protocol: as §3

[8] = Water content (Karl Fischer)
Protocol: The water content of the microcrystalline lactitol product was analyzed by the Karl Fischer method and the melting behaviour was measured by differential scanning calorimetry (DSC).
Moisture was measured using coulometric Karl Fischer titration

[9] = compression 32.5, listed as Microcrystalline Lactitol Sample
[10] = compression 33, listed as Microcrystalline Lactitol Sample
[11] = compression 33.5, listed as Microcrystalline Lactitol Sample
[12] = compression 34, listed as Microcrystalline Lactitol Sample

OC[C@@H](O)[C@@H](O[C@@H]1O[C@H](CO)[C@H](O)[C@H](O)[C@H]1O)[C@H](O)[C@@H](O)CO [Granulated Lactitol, lactitol]
Friability (10 tabs) ([1]; compression 32.5): 4.7%
Friability (10 tabs) ([1]; compression 33): 1.79%
Friability (10 tabs) ([1]; compression 33.5): 1.08%
Friability (10 tabs) ([1]; compression 34): 0.34%
Hardness ([2]; compression 32.5 (arbitrary figure)): 70 N
Hardness (in brackets) ([2]; compression 32.5): 82 N
Hardness ([2]; compression 33 (arbitrary figure)): 139 N
Hardness (in brackets) ([2]; compression 33): 133 N
Hardness ([2]; compression 33.5 (arbitrary figure)): 193 N
Hardness (in brackets) ([2]; compression 33.5): 213 N
Hardness ([2]; compression 34 (arbitrary figure)): 240 N
Hardness (in brackets) ([2]; compression 34): 307 N
Maximum hardness [2]: 240 N

OC[C@@H](O)[C@@H](O[C@@H]1O[C@H](CO)[C@H](O)[C@H](O)[C@H]1O)[C@H](O)[C@@H](O)CO [lactitol monohydrate]
Time to dissolve (Rate of solution; listed as the monohydrate, monohydrate): about 5 minutes
Friability results (in words) ([1]; tablets, all compression forces): all of the tablets totally disintegrating during the test
Viscosity change of chocolate on storage ([3]; monohydrate): considerable thickening
Particle size of the chocolate ([4]; monohydrate): 9-10 μm
Maximum hardness ([2]; listed as crystalline lactitol monohydrate, monohydrate): < 70 N
Heat of solution ([5]; monohydrate): 15.6 cal/g
Bulk density (Bulk density; monohydrate): 360 g/500 ml
Water sorption ([6]; 25° C. and 60% relative humidity, listed as the monohydrate, monohydrate): 0.02%
Water sorption ([6]; 40° C. and 70% relative humidity, listed as the monohydrate, monohydrate): 0.04%
Mean particle size ([7]; monohydrate): 0.47 mm
Sieve analysis 0 ([7]; monohydrate): 0.0
Sieve analysis >0.100 mm ([7]; monohydrate): 0.7
Sieve analysis >0.180 mm ([7]; monohydrate): 4.8
Sieve analysis >0.250 mm ([7]; monohydrate): 15.1
Sieve analysis >0.315 mm ([7]; monohydrate): 25.8
Sieve analysis >0.450 mm ([7]; monohydrate): 20.6
Sieve analysis >0.560 mm ([7]; monohydrate): 17.9
Sieve analysis >0.710 mm ([7]; monohydrate): 15.2
Coefficient of variation ([7]; monohydrate): 30
Flowability (Flowability; monohydrate): 23 s

OC[C@@H](O)[C@@H](O[C@@H]1O[C@H](CO)[C@H](O)[C@H](O)[C@H]1O)[C@H](O)[C@@H](O)CO [microcrystalline lactitol, lactitol]
Time to dissolve (Rate of solution): 4 min
Friability (10 tabs) ([1]; compression 32): 1.31%
Friability (10 tabs) [1, 9]: 0.32%
Friability (10 tabs) [1, 10]: 0.22%
Friability (10 tabs) [1, 11]: 0.5%
Friability (10 tabs) [1, 12]: 0.38%
Friability (10 tabs) ([1]; compression 34.5): 0.69%
Viscosity change of chocolate on storage [3]: no significant increase in viscosity
Particle size of the chocolate [4]: 10-12 μm
Water content of the product ([8]; Karl Fischer method): 3.5%
Moisture ([8]; coulometric Karl Fischer titration): 5.1%
Hardness ([2]; compression 32 (arbitrary figure)): 90 N
Hardness (in brackets) ([2]; compression 32): 85 N
Hardness ([2]; compression 32.5 (arbitrary figure), listed as Microcrystalline Lactitol Sample): 156 N
Hardness (in brackets) [2, 9]: 137 N
Hardness ([2]; compression 33 (arbitrary figure), listed as Microcrystalline Lactitol Sample): 252 N
Hardness (in brackets) [2, 10]: 257 N
Hardness ([2]; compression 33.5 (arbitrary figure), listed as Microcrystalline Lactitol Sample): 319 N
Hardness (in brackets) [2, 11]: (301) N
Hardness ([2]; compression 34 (arbitrary figure), listed as Microcrystalline Lactitol Sample): 134 N
Hardness (in brackets) [2, 12]: (335) N
Hardness ([2]; compression 34.5 (arbitrary figure)): 330 N
Hardness (in brackets) ([2]; compression 34.5): (344) N
Heat of solution [5]: 15.4 cal/g
Bulk density (Bulk density): 325 g/500 ml
Water sorption ([6]; 25° C. and 60% relative humidity): 0.05%
Water sorption ([6]; 40° C. and 70% relative humidity): 0.11%
Mean particle size [7]: 0.29 mm
Sieve analysis 0 [7]: 1.6
Sieve analysis >0.100 mm [7]: 13.0
Sieve analysis >0.180 mm [7]: 21.1
Sieve analysis >0.250 mm [7]: 21.6
Sieve analysis >0.315 mm [7]: 31.5
Sieve analysis >0.450 mm [7]: 8.3
Sieve analysis >0.560 mm [7]: 2.3
Sieve analysis >0.710 mm [7]: 0.6
Coefficient of variation [7]: 39
Flowability (Flowability): 17 s
